# Experimental data reported in patent publication US11905294B2, “Imidazo[1,5-a]pyrazine derivatives as PI3Kδ inhibitors” (BEIGENE, LTD., priority 2017, dated 2024).
# Legend:
# PI3K (p110δ/p85α) = PI3K (p110δ/p85α) (Homo sapiens, UniProt O00329); test: PI3Kδ assay (ADP-Glo Kinase Assay); type: biochemical; conditions: recombinant enzyme; IC50 (nM) or max inhibition (%) at 0.5 μM
# How it was run: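 Recombinant p110δ/p85α with lipid substrate and serially diluted compound, 0.5 hr RT preincubation; ATP-started reaction ran 1 hr at RT. ADP formed read by ADP-Glo luminescence; IC50 from four-parameter logistic fit of residual activity.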
# PI3K (p110α/p85α) = PI3K (p110α/p85α) (Homo sapiens, UniProt P42336); test: PI3Kα assay (ADP-Glo Kinase Assay); type: biochemical; conditions: recombinant enzyme; IC50 (nM) or max inhibition (%) at 0.5 μM
# Sequence of PI3K (p110α/p85α) (P42336 whole entry): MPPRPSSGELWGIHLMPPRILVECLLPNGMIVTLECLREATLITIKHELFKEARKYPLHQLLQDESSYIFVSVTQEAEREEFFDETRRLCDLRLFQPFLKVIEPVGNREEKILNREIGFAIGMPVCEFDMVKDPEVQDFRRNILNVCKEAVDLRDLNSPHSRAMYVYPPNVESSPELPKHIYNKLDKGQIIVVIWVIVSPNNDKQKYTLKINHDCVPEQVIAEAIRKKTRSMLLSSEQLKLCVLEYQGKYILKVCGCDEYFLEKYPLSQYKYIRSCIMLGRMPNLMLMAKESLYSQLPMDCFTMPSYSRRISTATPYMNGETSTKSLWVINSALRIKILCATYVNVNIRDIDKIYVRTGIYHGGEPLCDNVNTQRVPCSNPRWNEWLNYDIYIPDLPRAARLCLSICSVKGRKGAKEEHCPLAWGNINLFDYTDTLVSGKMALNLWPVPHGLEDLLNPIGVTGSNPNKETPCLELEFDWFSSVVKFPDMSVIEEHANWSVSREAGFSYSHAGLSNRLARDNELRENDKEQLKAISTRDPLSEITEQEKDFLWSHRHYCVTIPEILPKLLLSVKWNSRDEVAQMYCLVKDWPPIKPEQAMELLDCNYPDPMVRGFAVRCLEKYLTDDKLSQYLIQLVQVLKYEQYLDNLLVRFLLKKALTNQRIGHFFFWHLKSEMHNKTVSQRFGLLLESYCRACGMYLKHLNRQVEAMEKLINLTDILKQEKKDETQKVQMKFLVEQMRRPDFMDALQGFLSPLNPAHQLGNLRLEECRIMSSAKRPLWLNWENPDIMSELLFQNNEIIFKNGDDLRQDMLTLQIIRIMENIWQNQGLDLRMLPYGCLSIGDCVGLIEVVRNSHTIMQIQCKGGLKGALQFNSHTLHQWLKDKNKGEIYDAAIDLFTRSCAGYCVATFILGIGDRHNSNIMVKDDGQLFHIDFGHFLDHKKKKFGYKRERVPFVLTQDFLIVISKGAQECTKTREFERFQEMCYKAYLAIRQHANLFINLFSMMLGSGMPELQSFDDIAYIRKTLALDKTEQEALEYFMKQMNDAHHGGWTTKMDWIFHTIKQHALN
# Sequence of PI3K (p110α/p85α) (P27986 whole entry partner): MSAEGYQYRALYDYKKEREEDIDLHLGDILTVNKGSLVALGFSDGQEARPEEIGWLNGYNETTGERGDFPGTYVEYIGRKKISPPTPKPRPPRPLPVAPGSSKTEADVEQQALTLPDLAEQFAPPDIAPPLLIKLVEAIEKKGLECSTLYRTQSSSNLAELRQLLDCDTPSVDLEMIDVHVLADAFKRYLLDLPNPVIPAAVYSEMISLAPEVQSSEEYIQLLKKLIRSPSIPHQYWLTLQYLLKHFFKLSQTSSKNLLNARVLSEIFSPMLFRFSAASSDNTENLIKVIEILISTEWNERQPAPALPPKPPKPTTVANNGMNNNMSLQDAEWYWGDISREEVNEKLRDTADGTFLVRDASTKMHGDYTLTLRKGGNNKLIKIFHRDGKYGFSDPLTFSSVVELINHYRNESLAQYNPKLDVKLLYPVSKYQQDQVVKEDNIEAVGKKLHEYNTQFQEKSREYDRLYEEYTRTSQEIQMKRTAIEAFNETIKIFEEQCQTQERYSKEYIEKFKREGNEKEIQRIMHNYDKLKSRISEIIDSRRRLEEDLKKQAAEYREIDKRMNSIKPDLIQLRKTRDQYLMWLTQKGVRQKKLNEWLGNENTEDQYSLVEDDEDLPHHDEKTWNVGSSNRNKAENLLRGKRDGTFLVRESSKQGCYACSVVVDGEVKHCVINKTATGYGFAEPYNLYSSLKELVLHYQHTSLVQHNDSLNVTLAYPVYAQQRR
# PI3K (p110β/p85α) = PI3K (p110β/p85α) (Homo sapiens, UniProt P42338); test: PI3Kβ assay (ADP-Glo Kinase Assay); type: biochemical; conditions: read-out: Enzyme activity IC50 PI3Kβ
# Sequence of PI3K (p110β/p85α) (P42338 whole entry): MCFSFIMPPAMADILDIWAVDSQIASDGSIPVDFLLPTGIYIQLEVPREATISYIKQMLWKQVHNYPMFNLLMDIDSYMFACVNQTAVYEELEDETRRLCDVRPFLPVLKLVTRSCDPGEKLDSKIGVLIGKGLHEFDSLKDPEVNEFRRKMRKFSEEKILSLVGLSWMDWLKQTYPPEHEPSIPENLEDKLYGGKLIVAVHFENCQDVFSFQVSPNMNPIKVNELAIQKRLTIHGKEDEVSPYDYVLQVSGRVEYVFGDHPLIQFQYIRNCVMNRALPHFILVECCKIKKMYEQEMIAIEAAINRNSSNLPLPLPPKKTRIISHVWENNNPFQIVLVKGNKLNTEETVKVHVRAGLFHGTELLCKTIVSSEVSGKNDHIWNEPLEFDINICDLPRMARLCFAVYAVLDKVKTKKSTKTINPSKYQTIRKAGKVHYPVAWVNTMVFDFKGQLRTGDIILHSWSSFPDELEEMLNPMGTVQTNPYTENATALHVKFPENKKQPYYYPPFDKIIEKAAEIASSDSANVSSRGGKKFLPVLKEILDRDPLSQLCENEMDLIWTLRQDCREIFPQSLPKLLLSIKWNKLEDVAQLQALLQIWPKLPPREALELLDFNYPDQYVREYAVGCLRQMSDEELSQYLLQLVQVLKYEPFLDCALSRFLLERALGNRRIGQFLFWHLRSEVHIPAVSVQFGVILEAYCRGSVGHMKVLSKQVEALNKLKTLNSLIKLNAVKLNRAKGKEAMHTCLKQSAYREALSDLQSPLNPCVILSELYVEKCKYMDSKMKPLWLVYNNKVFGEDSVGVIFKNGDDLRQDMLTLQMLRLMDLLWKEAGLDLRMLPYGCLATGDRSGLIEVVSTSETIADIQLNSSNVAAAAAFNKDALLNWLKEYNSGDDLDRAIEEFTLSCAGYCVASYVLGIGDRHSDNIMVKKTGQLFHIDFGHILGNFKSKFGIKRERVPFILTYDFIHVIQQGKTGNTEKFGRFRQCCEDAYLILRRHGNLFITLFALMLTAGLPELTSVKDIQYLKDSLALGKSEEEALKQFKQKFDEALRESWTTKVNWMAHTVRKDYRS
# Sequence of PI3K (p110β/p85α) (P27986 whole entry partner): as the sequence (P27986 whole entry partner) above
# PI3K (p110γ) = PI3K (p110γ) (Homo sapiens, UniProt P48736); test: PI3Kγ assay (ADP-Glo Kinase Assay); type: biochemical; conditions: recombinant enzyme; IC50 (nM) or max inhibition (%) at 0.5 μM
# Sequence of PI3K (p110γ) (P48736 whole entry): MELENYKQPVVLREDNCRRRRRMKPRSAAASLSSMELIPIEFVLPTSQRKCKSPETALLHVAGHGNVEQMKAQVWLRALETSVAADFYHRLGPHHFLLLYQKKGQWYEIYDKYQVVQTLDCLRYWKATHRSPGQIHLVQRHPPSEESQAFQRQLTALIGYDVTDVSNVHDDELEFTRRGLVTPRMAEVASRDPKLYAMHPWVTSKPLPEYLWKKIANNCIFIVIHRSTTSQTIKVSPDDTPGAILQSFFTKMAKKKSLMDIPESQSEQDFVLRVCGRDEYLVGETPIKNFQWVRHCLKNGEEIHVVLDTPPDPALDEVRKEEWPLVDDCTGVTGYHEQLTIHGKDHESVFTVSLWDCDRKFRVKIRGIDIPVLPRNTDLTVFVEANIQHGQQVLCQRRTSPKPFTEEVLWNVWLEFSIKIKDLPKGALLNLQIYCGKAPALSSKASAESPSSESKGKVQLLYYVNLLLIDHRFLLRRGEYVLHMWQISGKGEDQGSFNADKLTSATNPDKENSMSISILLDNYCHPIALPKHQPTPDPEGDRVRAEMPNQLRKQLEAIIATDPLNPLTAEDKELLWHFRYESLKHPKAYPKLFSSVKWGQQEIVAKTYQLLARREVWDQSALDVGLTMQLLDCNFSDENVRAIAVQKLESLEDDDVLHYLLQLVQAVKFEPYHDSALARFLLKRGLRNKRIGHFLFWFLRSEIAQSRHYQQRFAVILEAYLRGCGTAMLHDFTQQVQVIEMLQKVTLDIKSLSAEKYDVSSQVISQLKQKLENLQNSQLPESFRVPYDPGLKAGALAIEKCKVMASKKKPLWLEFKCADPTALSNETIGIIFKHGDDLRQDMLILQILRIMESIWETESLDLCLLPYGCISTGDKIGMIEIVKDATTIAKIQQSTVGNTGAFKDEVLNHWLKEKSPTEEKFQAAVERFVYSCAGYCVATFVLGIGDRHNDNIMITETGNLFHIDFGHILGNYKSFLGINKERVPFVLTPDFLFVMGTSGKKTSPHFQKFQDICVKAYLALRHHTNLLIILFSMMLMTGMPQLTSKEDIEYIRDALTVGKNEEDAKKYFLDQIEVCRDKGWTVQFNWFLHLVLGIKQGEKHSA
# [1] = Pharmacokinetic properties in Sprague-Dawley rats after intravenous (IV) and oral (PO) administration; type: in vivo; conditions: rat; for AUC(0-inf) / clearance / half-life / Vd / Cmax / Tmax / bioavailability: male, Sprague-Dawley, plasma; for Vd: read-out: VdSS
# Procedure: III. Pharmacokinetic Properties of Compounds in Sprague-Dawley Rats After Intravenous (IV) and Oral Administrations (PO)
# The injection dosing solution was prepared as follows: 1.0 mg of a test compound was weighed and dissolved in 0.32 mL of dimethyl acetamide (DMA). The solution was then further diluted by 0.36 mL of ethanol and 0.32 mL of propylene glycol. The final concentration of the test compound was 1.0 mg·mL^−1.
# The oral dosing solution was prepared as follows: 5.0 mg of a test compound was weighed and dispersed in […] of 0.5% methyl cellulose (MC). The final concentration of the test compound is 1 mg·mL^−1.
# Male Sprague-Dawley rats (also summarized in Table 2) were housed in solid bottom polypropylene cages with sterilized bedding and receive sterilized diet and sterilized water. The room was controlled and monitored for humidity (targeted mean range 40% to 70%) and temperature (targeted mean range 18° C. to 26° C.) with 10 to 20 air changes/hour. The light cycle was maintained at 12-h light and 12-h dark. Only animals that appeared to be healthy were selected for this study based on overall health, body weight, or other relevant information.
# Three rats were given a single IV dose of 1 mg·kg^−1 via tail vein injection and other three rats were given a single oral dose of 5 or 10 mg·kg^−1. The dosing solutions were freshly prepared prior to dose administration. The actual body weights and actual volume injected were recorded accordingly. Four hours after dosing, the rats were allowed to intake food.
# Blood samples (˜150 μL) were collected at different times from the jugular vein catheter into EDTA-K2 coated tubes. Whole blood was processed by centrifugation at 3000 g for 10 min. Plasma samples were collected and kept at −80° C. freezer prior to analysis. The blood sampling time was recorded accordingly.
# The dose samples of IV and PO were diluted with MeOH: H2O (4:1, v/v) to achieve the concentration of 2 μg·mL^−1, respectively. Then, 2.5 μL of the diluted samples were added with 47.5 μL blank plasma, and then were handled as the plasma sample procedure. An aliquot of 10 μL of the mixture was injected into the LC-MS/MS system.
# Sequence of PI3K (p110δ/p85α) (O00329 whole entry): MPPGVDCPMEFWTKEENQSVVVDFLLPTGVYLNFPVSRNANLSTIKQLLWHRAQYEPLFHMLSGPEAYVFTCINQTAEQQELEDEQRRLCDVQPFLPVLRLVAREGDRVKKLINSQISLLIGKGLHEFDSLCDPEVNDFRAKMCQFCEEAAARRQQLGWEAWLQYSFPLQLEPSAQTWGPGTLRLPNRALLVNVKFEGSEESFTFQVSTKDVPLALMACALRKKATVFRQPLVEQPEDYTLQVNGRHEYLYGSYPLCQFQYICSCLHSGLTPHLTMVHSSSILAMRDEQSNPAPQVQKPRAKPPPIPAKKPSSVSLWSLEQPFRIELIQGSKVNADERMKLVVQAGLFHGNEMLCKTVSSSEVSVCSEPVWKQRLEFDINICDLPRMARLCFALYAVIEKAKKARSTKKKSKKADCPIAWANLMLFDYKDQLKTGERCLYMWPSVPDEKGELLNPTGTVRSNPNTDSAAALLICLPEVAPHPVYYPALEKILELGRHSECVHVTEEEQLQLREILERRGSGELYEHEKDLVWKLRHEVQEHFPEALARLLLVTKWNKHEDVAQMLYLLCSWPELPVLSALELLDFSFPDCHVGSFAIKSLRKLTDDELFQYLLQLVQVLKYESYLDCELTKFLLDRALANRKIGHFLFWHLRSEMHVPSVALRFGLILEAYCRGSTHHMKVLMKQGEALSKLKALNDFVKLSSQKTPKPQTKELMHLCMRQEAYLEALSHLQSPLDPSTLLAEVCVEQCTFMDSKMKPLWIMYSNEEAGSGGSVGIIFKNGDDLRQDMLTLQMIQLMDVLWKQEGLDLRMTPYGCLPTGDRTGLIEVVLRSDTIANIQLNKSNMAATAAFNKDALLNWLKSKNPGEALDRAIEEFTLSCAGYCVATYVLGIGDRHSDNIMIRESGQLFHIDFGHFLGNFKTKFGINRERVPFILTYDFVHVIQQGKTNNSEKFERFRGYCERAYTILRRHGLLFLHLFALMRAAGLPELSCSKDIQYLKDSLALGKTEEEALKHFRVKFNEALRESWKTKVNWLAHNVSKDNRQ
# Sequence of PI3K (p110δ/p85α) (P27986 whole entry partner): as the sequence (P27986 whole entry partner) above
Structure (SMILES),IC50 (PI3K (p110δ/p85α)) [nM],IC50 (PI3K (p110α/p85α)) [nM],IC50 (PI3K (p110β/p85α)) [µM],IC50 (PI3K (p110γ)) [nM],"AUC(0-inf) ([1]; 1 mg/kg, IV 1 mpk) [µg·h/mL]","clearance ([1]; 1 mg/kg, IV 1 mpk) [L/h/kg]","half-life ([1]; 1 mg/kg, IV 1 mpk) [h]","Vd ([1]; 1 mg/kg, IV 1 mpk) [L/kg]","AUC(0-inf) ([1]; 5 mg/kg, PO 5 mpk) [µg·h/mL]","Cmax ([1]; 5 mg/kg, PO 5 mpk) [µg/mL]","Tmax ([1]; 5 mg/kg, PO 5 mpk) [h]","half-life ([1]; 5 mg/kg, PO 5 mpk) [h]","bioavailability ([1]; 5 mg·kg^−1, PO 5 mpk vs IV 1 mpk) [%]","AUC(0-inf) ([1]; 10 mg/kg, PO 10 mpk) [µg·h/mL]","Cmax ([1]; 10 mg/kg, PO 10 mpk) [µg/mL]","Tmax ([1]; 10 mg/kg, PO 10 mpk) [h]","half-life ([1]; 10 mg/kg, PO 10 mpk) [h]","bioavailability ([1]; 10 mg·kg^−1, PO 10 mpk vs IV 1 mpk) [%]",half-life (in words) ([1]; in vivo)
"Cc1nc([C@@H](C)c2cc(Cl)c(F)c(C(=O)N[C@H]3CC[C@H](O)CC3)c2OC(C)C)n2ccnc(N)c12 [Compound 60, 3((S)-1-(8-amino-1-methylimidazo[1,5-a]pyrazin-3-yl)ethyl)-5-chloro-6-fluoro-N-((trans)-4-hydroxycyclohexyl)-2-isopropoxybenzamide]",0.95,11000,35,6300,0.218,4.6,0.6,3.3,0.159,0.133,0.3,2,14.6,,,,,,
"Cc1nc([C@@H](C)c2cc(Cl)c(F)c(C(=O)NCCN3CCN(C)CC3)c2OC(C)C)n2ccnc(N)c12 [Compound 73, (S)-3-(1-(8-amino-1-methylimidazo[1,5-a]pyrazin-3-yl)ethyl)-5-chloro-6-fluoro-2-isopropoxy-N-(2-(4-methylpiperazin-1-yl)ethyl)benzamide]",2.8,14000,14,9500,0.194,5.2,8.2,59.4,,,,,,0.918,0.22,1.5,5.6,34.9,unexpected long half-life
